Values quoted from earlier work as cited in publication PMC13130965, “An Integrated Approach Combining Regulatory Tests in tg(cyp19a1b:GFP) Zebrafish Embryos to Assess Toxicity, Developmental Effects, and Estrogenic Activity of Chemicals: A Case Study with Bisphenol A Substitutes” (Environmental Science & Technology, 2026).
≈ marks a conversion by molar mass, not a printed value.

Test system: Adult Zebrafish
Details: ref Ren et al. (2017); cited from earlier work

For CC(C)(c1ccc(O)cc1)c1ccc(O)cc1 [BPA, 4-[2-(4-hydroxyphenyl)propan-2-yl] phenol], the “LC50(24h)” value is given as 9.51 µg/mL (≈ 41.7 µM), the “LC50(48h)” value is given as 9.31 µg/mL (≈ 40.8 µM) and the “LC50(72h)” value is given as 8.09 µg/mL (≈ 35.4 µM). The “LC50(96h)” value was 8.09 µg/mL (≈ 35.4 µM).
